{"source": "patent US20090241222A1", "about": "“TANDEM REAPEAT DNA CONSTRUCTS PRODUCING PROTEINS THAT ATTACK PLANT PATHOGENIC VIRUSES, FUNGI, AND BACTERIA BY DISRUPTING TRANSCRIPTION FACTORS ESSENTIAL FOR REPLICATION THEREOF IN PLANTS” (priority 2008, published 2009)", "origin": "cited, not measured here", "test_system": "Magnaporthe grisea", "details": "PA treated plants; cited from earlier work"}
{"smiles": "O=C(O)c1ccccn1", "note": "[picolinic acid, 2-pyridine carboxylic acid]", "values": [{"measurement": "resistance against M. grisea", "result": "enhanced"}]}
